Measured values from PubChem BioAssay (NCI).
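In this assay, cells in 96-well plates receive the compound at five concentrations for 48 hours. Endpoints are linearly interpolated between the surrounding concentrations. GI50 is the concentration that inhibits growth by half. TGI: total growth inhibition.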

Assays:
Test in all cases: NCI anticancer screen, dose series, 48 h
CCRF-CEM leukemia = test system: CCRF-CEM leukemia
BT-549 breast = test system: BT-549 breast
SW-620 colon = test system: SW-620 colon
SK-MEL-2 melanoma = test system: SK-MEL-2 melanoma
MDA-MB-231 breast = test system: MDA-MB-231 breast
HOP-92 NSCLC = test system: HOP-92 NSCLC
HCC-2998 colon = test system: HCC-2998 colon
A549 NSCLC = test system: A549 NSCLC
IGROV1 ovarian = test system: IGROV1 ovarian
NCI/ADR-RES ovarian = test system: NCI/ADR-RES ovarian
CAKI-1 renal = test system: CAKI-1 renal
HL-60(TB) leukemia = test system: HL-60(TB) leukemia
UACC-62 melanoma = test system: UACC-62 melanoma
HS 578T breast = test system: HS 578T breast
786-0 renal = test system: 786-0 renal
OVCAR-8 ovarian = test system: OVCAR-8 ovarian
COLO 205 colon = test system: COLO 205 colon
SK-MEL-5 melanoma = test system: SK-MEL-5 melanoma
HOP-62 NSCLC = test system: HOP-62 NSCLC
HT29 colon = test system: HT29 colon
UO-31 renal = test system: UO-31 renal
NCI-H23 lung = test system: NCI-H23 lung
SNB-75 CNS = test system: SNB-75 CNS
NCI-H522 lung = test system: NCI-H522 lung
RXF 393 renal = test system: RXF 393 renal
TK-10 renal = test system: TK-10 renal
OVCAR-4 ovarian = test system: OVCAR-4 ovarian
K-562 leukemia = test system: K-562 leukemia
OVCAR-3 ovarian = test system: OVCAR-3 ovarian
DU-145 prostate = test system: DU-145 prostate
RPMI-8226 leukemia = test system: RPMI-8226 leukemia
UACC-257 melanoma = test system: UACC-257 melanoma
SK-OV-3 ovarian = test system: SK-OV-3 ovarian
MALME-3M melanoma = test system: MALME-3M melanoma
LOX IMVI melanoma = test system: LOX IMVI melanoma
HCT-116 colon = test system: HCT-116 colon
KM12 colon = test system: KM12 colon
MDA-MB-435 = test system: MDA-MB-435
MCF7 breast = test system: MCF7 breast
PC-3 prostate = test system: PC-3 prostate
SN12C renal = test system: SN12C renal
SR leukemia = test system: SR leukemia
NCI-H226 lung = test system: NCI-H226 lung
MOLT-4 leukemia = test system: MOLT-4 leukemia
SNB-19 CNS = test system: SNB-19 CNS
M14 melanoma = test system: M14 melanoma
T-47D breast = test system: T-47D breast
SK-MEL-28 melanoma = test system: SK-MEL-28 melanoma
SF-295 CNS = test system: SF-295 CNS
A498 renal = test system: A498 renal
U251 CNS = test system: U251 CNS
SF-268 CNS = test system: SF-268 CNS
NCI-H460 lung = test system: NCI-H460 lung
EKVX NSCLC = test system: EKVX NSCLC
HCT-15 colon = test system: HCT-15 colon
OVCAR-5 ovarian = test system: OVCAR-5 ovarian
ACHN renal = test system: ACHN renal
SF-539 CNS = test system: SF-539 CNS

`CCNNC(=O)[C@@H]1[C@H](c2cc(OC)c(OC)c(OC)c2)c2cc3c(cc2[C@H](O)[C@H]1CO)OCO3` gave a GI50 (CCRF-CEM leukemia) of 316 nM, a TGI (CCRF-CEM leukemia) greater than 100000 nM and a GI50 (BT-549 breast) of 413 nM. For the same molecule, the GI50 (SW-620 colon) was 396 nM, the TGI (SW-620 colon) was greater than 100000 nM and the GI50 (SK-MEL-2 melanoma) was 614 nM. It also gave a TGI (SK-MEL-2 melanoma) greater than 100000 nM, a GI50 (MDA-MB-231 breast) of 500 nM and a TGI (MDA-MB-231 breast) greater than 100000 nM. It also gave a GI50 (HOP-92 NSCLC) of 433 nM, a TGI (HOP-92 NSCLC) greater than 100000 nM and a GI50 (HCC-2998 colon) of 374 nM. It also gave a TGI (HCC-2998 colon) greater than 22200 nM, a GI50 (A549 NSCLC) of 376 nM and a TGI (A549 NSCLC) greater than 100000 nM. It also gave a GI50 (IGROV1 ovarian) of 590 nM, a TGI (IGROV1 ovarian) greater than 100000 nM and a GI50 (NCI/ADR-RES ovarian) of 509 nM. The TGI (NCI/ADR-RES ovarian) was 17700 nM, the GI50 (CAKI-1 renal) was 596 nM and the TGI (CAKI-1 renal) was greater than 100000 nM. For the same molecule, the GI50 (HL-60(TB) leukemia) was 277 nM, the TGI (HL-60(TB) leukemia) was 707 nM and the GI50 (UACC-62 melanoma) was 398 nM. It also gave a TGI (UACC-62 melanoma) greater than 100000 nM, a GI50 (HS 578T breast) of 376 nM and a TGI (HS 578T breast) greater than 100000 nM. It also gave a GI50 (786-0 renal) of 495 nM, a TGI (786-0 renal) greater than 100000 nM and a GI50 (OVCAR-8 ovarian) of 692 nM. The TGI (OVCAR-8 ovarian) was greater than 100000 nM, the GI50 (COLO 205 colon) was 266 nM and the TGI (COLO 205 colon) was 646 nM. It also gave a GI50 (SK-MEL-5 melanoma) of 236 nM, a TGI (SK-MEL-5 melanoma) of 635 nM and a GI50 (HOP-62 NSCLC) of 561 nM. For the same molecule, the TGI (HOP-62 NSCLC) was greater than 100000 nM, the GI50 (HT29 colon) was 351 nM and the TGI (HT29 colon) was 13000 nM. It also gave a GI50 (UO-31 renal) of 4320 nM, a TGI (UO-31 renal) greater than 100000 nM and a GI50 (NCI-H23 lung) of 372 nM. For the same molecule, the TGI (NCI-H23 lung) was greater than 100000 nM, the GI50 (SNB-75 CNS) was 442 nM and the TGI (SNB-75 CNS) was greater than 100000 nM. For the same molecule, the GI50 (NCI-H522 lung) was 288 nM, the TGI (NCI-H522 lung) was 833 nM and the GI50 (RXF 393 renal) was 340 nM. The TGI (RXF 393 renal) was greater than 100000 nM, the GI50 (TK-10 renal) was 30800 nM and the TGI (TK-10 renal) was greater than 100000 nM. It also gave a GI50 (OVCAR-4 ovarian) of 2370 nM, a TGI (OVCAR-4 ovarian) greater than 100000 nM and a GI50 (K-562 leukemia) of 349 nM. It also gave a TGI (K-562 leukemia) greater than 100000 nM, a GI50 (OVCAR-3 ovarian) of 275 nM and a TGI (OVCAR-3 ovarian) of 804 nM. For the same molecule, the GI50 (DU-145 prostate) was 537 nM, the TGI (DU-145 prostate) was greater than 100000 nM and the GI50 (RPMI-8226 leukemia) was 407 nM. It also gave a TGI (RPMI-8226 leukemia) greater than 100000 nM, a GI50 (UACC-257 melanoma) of 4370 nM and a GI50 (SK-OV-3 ovarian) of 290 nM. The TGI (SK-OV-3 ovarian) was 1080 nM, the GI50 (MALME-3M melanoma) was greater than 20500 nM and the TGI (MALME-3M melanoma) was greater than 100000 nM. The GI50 (LOX IMVI melanoma) was 357 nM, the TGI (LOX IMVI melanoma) was greater than 100000 nM and the GI50 (HCT-116 colon) was 354 nM. It also gave a TGI (HCT-116 colon) greater than 100000 nM, a GI50 (KM12 colon) of 387 nM and a TGI (KM12 colon) greater than 100000 nM. The GI50 (MDA-MB-435) was 240 nM, the TGI (MDA-MB-435) was 697 nM and the GI50 (MCF7 breast) was 360 nM. For the same molecule, the TGI (MCF7 breast) was greater than 100000 nM, the GI50 (PC-3 prostate) was 391 nM and the TGI (PC-3 prostate) was greater than 100000 nM. The GI50 (SN12C renal) was 449 nM, the TGI (SN12C renal) was greater than 100000 nM and the GI50 (SR leukemia) was 315 nM. It also gave a TGI (SR leukemia) greater than 100000 nM, a GI50 (NCI-H226 lung) of 311 nM and a GI50 (MOLT-4 leukemia) of 400 nM. It also gave a TGI (MOLT-4 leukemia) greater than 100000 nM, a GI50 (SNB-19 CNS) of 452 nM and a TGI (SNB-19 CNS) greater than 100000 nM. For the same molecule, the GI50 (M14 melanoma) was 369 nM, the TGI (M14 melanoma) was greater than 100000 nM and the GI50 (T-47D breast) was greater than 100000 nM. For the same molecule, the TGI (T-47D breast) was greater than 100000 nM, the GI50 (SK-MEL-28 melanoma) was 599 nM and the TGI (SK-MEL-28 melanoma) was greater than 100000 nM. The GI50 (SF-295 CNS) was 320 nM, the TGI (SF-295 CNS) was greater than 100000 nM and the GI50 (A498 renal) was 211 nM. It also gave a TGI (A498 renal) of 703 nM, a GI50 (U251 CNS) of 321 nM and a TGI (U251 CNS) greater than 100000 nM. It also gave a GI50 (SF-268 CNS) of 1310 nM, a TGI (SF-268 CNS) greater than 100000 nM and a GI50 (NCI-H460 lung) of 343 nM. For the same molecule, the TGI (NCI-H460 lung) was greater than 100000 nM, the GI50 (EKVX NSCLC) was 519 nM and the TGI (EKVX NSCLC) was greater than 100000 nM. The GI50 (HCT-15 colon) was 398 nM, the TGI (HCT-15 colon) was greater than 100000 nM and the GI50 (OVCAR-5 ovarian) was 519 nM. It also gave a TGI (OVCAR-5 ovarian) greater than 100000 nM, a GI50 (ACHN renal) of 755 nM and a TGI (ACHN renal) greater than 100000 nM. It also gave a GI50 (SF-539 CNS) of 294 nM and a TGI (SF-539 CNS) of 802 nM.
